Test results as given in patent US11807644B2 (PMV Pharmaceuticals, Inc., priority 2020, dated 2023).

The molecules below were run against T1, recombinant His-tag Y220C p53 DBD protein (Homo sapiens, UniProt P04637, Y220C) (assay: In vitro DNA binding activity assay (TR-FRET): binding of His-tag Y220C p53 DBD to biotin-labeled consensus DNA). Conditions: SC150 = concentration to increase DNA binding by […], His-tag Y220C p53 DBD, biotin-labeled consensus DNA.
T1 construct: recombinant His-tag Y220C p53 DBD protein (amino acids #˜94-312)
Type: biochemical

Structure (SMILES) | Y220C SC150 (μM)
CN1CC[C@@H](Nc2cccc3c2cc(-c2noc(CNC(=O)c4csc(Cl)c4)n2)n3CC(F)(F)F)[C@@H](F)C1 [Compound 213B, 5-chloro-N-{[3-(4-{[(3S,4R)-3-fluoro-1-methylpiperidin-4-yl]amino}-1-(2,2,2-trifluoroethyl)-1H-indol-2-yl)-1,2,4-oxadiazol-5-yl]methyl}thiophene-3-carboxamide] | * (* = 0 μM ≤ SC150 < 0.1 μM)
CN1CC[C@@H](Nc2cccc3c2cc(-c2noc(CNC(=O)c4ccn(CCO)c4)n2)n3CC(F)(F)F)[C@@H](F)C1 [Compound 249B, N-{[3-(4-{[(3S,4R)-3-fluoro-1-methylpiperidin-4-yl]amino}-1-(2,2,2-trifluoroethyl)-1H-indol-2-yl)-1,2,4-oxadiazol-5-yl]methyl}-1-(2-hydroxyethyl)-1H-pyrrole-3-carboxamide] | * (* = 0 μM ≤ SC150 < 0.1 μM)
CC(C)(C)n1ccc(C(=O)NCc2nc(-c3cc4c(NC5CCC(F)(F)CC5)cccc4n3CC(F)(F)F)no2)c1 [Compound 328B, 1-tert-butyl-N-[(3-{4-[(4,4-difluorocyclohexyl)amino]-1-(2,2,2-trifluoroethyl)-1H-indol-2-yl}-1,2,4-oxadiazol-5-yl)methyl]-1H-pyrrole-3-carboxamide] | * (* = 0 μM ≤ SC150 < 0.1 μM)
CN1CC[C@@H](Nc2cccc3c2cc(-c2noc(CNC(=O)c4ccn(C5CCOCC5)c4)n2)n3CC(F)(F)F)[C@@H](F)C1 [Compound 335B, N-{[3-(4-{[(3S,4R)-3-fluoro-1-methylpiperidin-4-yl]amino}-1-(2,2,2-trifluoroethyl)-1H-indol-2-yl)-1,2,4-oxadiazol-5-yl]methyl}-1-(oxan-4-yl)-1H-pyrrole-3-carboxamide] | * (* = 0 μM ≤ SC150 < 0.1 μM)
CN1CC[C@@H](Nc2cccc3c2cc(-c2noc(CNC(=O)c4cn(C(C)(C)C)cn4)n2)n3CC(F)(F)F)[C@@H](F)C1 [Compound 292B, 1-tert-butyl-N-{[3-(4-{[(3S,4R)-3-fluoro-1-methylpiperidin-4-yl]amino}-1-(2,2,2-trifluoroethyl)-1H-indol-2-yl)-1,2,4-oxadiazol-5-yl]methyl}-1H-imidazole-4-carboxamide] | * (* = 0 μM ≤ SC150 < 0.1 μM)
CN1CC[C@@H](Nc2cccc3c2cc(-c2noc(CNC(=O)[C@@H]4C[C@H]4c4cnn(C)c4)n2)n3CC(F)(F)F)[C@@H](F)C1 [Compound 225B, (1R,2R)-N-{[3-(4-{[(3S,4R)-3-fluoro-1-methylpiperidin-4-yl]amino}-1-(2,2,2-trifluoroethyl)-1H-indol-2-yl)-1,2,4-oxadiazol-5-yl]methyl}-2-(1-methyl-1H-pyrazol-4-yl)cyclopropane-1-carboxamide] | * (* = 0 μM ≤ SC150 < 0.1 μM)
CN1CCC(Nc2cccc3c2cc(-c2noc(CNC(=O)[C@@H]4C[C@H]4c4ccccc4)n2)n3CC(F)(F)F)CC1 (racemic) [Compound 156B, (+/−)-(1R,2R)—N-[(3-{4-[(1-methylpiperidin-4-yl)amino]-1-(2,2,2-trifluoroethyl)-1H-indol-2-yl}-1,2,4-oxadiazol-5-yl)methyl]-2-phenylcyclopropane-1-carboxamide] | * (* = 0 μM ≤ SC150 < 0.1 μM)
CN1CC[C@@H](Nc2cccc3c2cc(-c2noc(CNC(=O)c4cn(C(C)(C)CF)cn4)n2)n3CC(F)(F)F)[C@@H](F)C1 [Compound 342B, N-{[3-(4-{[(3S,4R)-3-fluoro-1-methylpiperidin-4-yl]amino}-1-(2,2,2-trifluoroethyl)-1H-indol-2-yl)-1,2,4-oxadiazol-5-yl]methyl}-1-(1-fluoro-2-methylpropan-2-yl)-1H-imidazole-4-carboxamide] | * (* = 0 μM ≤ SC150 < 0.1 μM)
CN1CCC(Nc2cccc3c2cc(-c2nnc(CNC(=O)N(C)C)s2)n3CC(F)(F)F)CC1 [Compound 68B, 3,3-dimethyl-1-[(5-{4-[(1-methylpiperidin-4-yl)amino]-1-(2,2,2-trifluoroethyl)-1H-indol-2-yl}-1,3,4-thiadiazol-2-yl)methyl]urea] | ** (** = 0.1 μM ≤ SC150 < 0.5 μM)
CN1CC[C@@H](Nc2cccc3c2cc(-c2noc(CNC(=O)c4cn(CC(F)F)cn4)n2)n3CC(F)(F)F)[C@@H](F)C1 [Compound 310B, 1-(2,2-difluoroethyl)-N-{[3-(4-{[(3S,4R)-3-fluoro-1-methylpiperidin-4-yl]amino}-1-(2,2,2-trifluoroethyl)-1H-indol-2-yl)-1,2,4-oxadiazol-5-yl]methyl}-1H-imidazole-4-carboxamide] | * (* = 0 μM ≤ SC150 < 0.1 μM)
CN1CC[C@@H](Nc2cccc3c2cc(-c2noc(CNC(=O)c4csc(C(C)(C)O)c4)n2)n3CC(F)(F)F)[C@@H](F)C1 [Compound 425B, N-{[3-(4-{[(3S,4R)-3-fluoro-1-methylpiperidin-4-yl]amino}-1-(2,2,2-trifluoroethyl)-1H-indol-2-yl)-1,2,4-oxadiazol-5-yl]methyl}-5-(2-hydroxypropan-2-yl)thiophene-3-carboxamide] | * (* = 0 μM ≤ SC150 < 0.1 μM)
CN1CC[C@@H](Nc2cccc3c2cc(-c2noc(CNC(=O)c4cnn(C5CCCCC5)c4)n2)n3CC(F)(F)F)[C@@H](F)C1 [Compound 326B, 1-cyclohexyl-N-{[3-(4-{[(3S,4R)-3-fluoro-1-methylpiperidin-4-yl]amino}-1-(2,2,2-trifluoroethyl)-1H-indol-2-yl)-1,2,4-oxadiazol-5-yl]methyl}-1H-pyrazole-4-carboxamide] | * (* = 0 μM ≤ SC150 < 0.1 μM)
CN1CC[C@@H](Nc2cccc3c2cc(-c2noc(CNC(=O)c4ccn([C@H]5CC[C@](C)(O)C5)c4)n2)n3CC(F)(F)F)[C@@H](F)C1 (stereo in doubt) [Compound 373B, Trans-N-{[3-(4-{[(3S,4R)-3-fluoro-1-methylpiperidin-4-yl]amino}-1-(2,2,2-trifluoroethyl)-1H-indol-2-yl)-1,2,4-oxadiazol-5-yl]methyl}-1-[(1R,3R)-3-hydroxy-3-methylcyclopentyl]-1H-pyrrole-3-carboxamide] | * (* = 0 μM ≤ SC150 < 0.1 μM)
CN1CCC(Nc2cccc3c2cc(-c2cc(CNc4ccc(S(C)(=O)=O)cc4)[nH]n2)n3CC(F)(F)F)CC1 [Compound 22B, 2-(5-{[(4-methanesulfonylphenyl)amino]methyl}-1H-pyrazol-3-yl)-N-(1-methylpiperidin-4-yl)-1-(2,2,2-trifluoroethyl)-1H-indol-4-amine] | ** (** = 0.1 μM ≤ SC150 < 0.5 μM)
Cc1c(C(=O)NCc2nc(-c3cc4c(N[C@@H]5CCN(C)C[C@@H]5F)cccc4n3CC(F)(F)F)no2)cnn1C(C)(C)C [Compound 322B, 1-tert-butyl-N-{[3-(4-{[(3S,4R)-3-fluoro-1-methylpiperidin-4-yl]amino}-1-(2,2,2-trifluoroethyl)-1H-indol-2-yl)-1,2,4-oxadiazol-5-yl]methyl}-5-methyl-1H-pyrazole-4-carboxamide] | * (* = 0 μM ≤ SC150 < 0.1 μM)
CN1CC[C@H](F)[C@H](Nc2cccc3c2cc(-c2noc(CNC(=O)c4ccn(C(C)(C)C)c4)n2)n3CC(F)(F)F)C1 [Compound 414B, 1-tert-butyl-N-{[3-(4-{[(3R,4S)-4-fluoro-1-methylpiperidin-3-yl]amino}-1-(2,2,2-trifluoroethyl)-1H-indol-2-yl)-1,2,4-oxadiazol-5-yl]methyl}-1H-pyrrole-3-carboxamide] | * (* = 0 μM ≤ SC150 < 0.1 μM)
CN1CC[C@@H](Nc2cccc3c2cc(-c2nc(CNC(=O)c4ccsc4)no2)n3CC(F)(F)F)[C@@H](F)C1 (racemic) [Compound 278B, (+/−)-N-{[5-(4-{[(3R,4S)-3-fluoro-1-methylpiperidin-4-yl]amino}-1-(2,2,2-trifluoroethyl)-1H-indol-2-yl)-1,2,4-oxadiazol-3-yl]methyl}thiophene-3-carboxamide] | * (* = 0 μM ≤ SC150 < 0.1 μM)
CC1(n2ccc(C(=O)NCc3nc(-c4cc5c(N[C@@H]6CCOC[C@@H]6F)cccc5n4CC(F)(F)F)no3)c2)CCOCC1 (stereo in doubt) [Compound 494B, N-((3-(4-(((3R,4R)-3-fluorotetrahydro-2H-pyran-4-yl)amino)-1-(2,2,2-trifluoroethyl)-1H-indol-2-yl)-1,2,4-oxadiazol-5-yl)methyl)-1-(4-methyltetrahydro-2H-pyran-4-yl)-1H-pyrrole-3-carboxamide] | * (* = 0 μM ≤ SC150 < 0.1 μM)
CN1CC[C@@H](Nc2cccc3c2cc(-c2noc(CNC(=O)c4ccn(C5CCCC5F)c4)n2)n3CC(F)(F)F)[C@@H](F)C1 (stereo in doubt) [Compound 392B, N-{[3-(4-{[(3S,4R)-3-fluoro-1-methylpiperidin-4-yl]amino}-1-(2,2,2-trifluoroethyl)-1H-indol-2-yl)-1,2,4-oxadiazol-5-yl]methyl}-1-[(1R,2R)-2-fluorocyclopentyl]-1H-pyrrole-3-carboxamide] | * (* = 0 μM ≤ SC150 < 0.1 μM)
COC1CCCC1n1cc(C(=O)NCc2nc(-c3cc4c(N[C@@H]5CCN(C)C[C@@H]5F)cccc4n3CC(F)(F)F)no2)cn1 (stereo in doubt) [Compound 348B, N-{[3-(4-{[(3S,4R)-3-fluoro-1-methylpiperidin-4-yl]amino}-1-(2,2,2-trifluoroethyl)-1H-indol-2-yl)-1,2,4-oxadiazol-5-yl]methyl}-1-[(1R,2R)-2-methoxycyclopentyl]-1H-pyrazole-4-carboxamide] | * (* = 0 μM ≤ SC150 < 0.1 μM)

Same assay, conditions: concentration to increase DNA binding by […], incubated at either 27° C. or 29° C. for 60 min

Structure (SMILES) | SC150 (μM)
O=S1(=O)CCC(Nc2cccc3c2cc(-c2cccc(Cl)c2)n3CC(F)(F)F)CC1 [Compound 12A, 4-{[2-(3-chlorophenyl)-1-(2,2,2-trifluoroethyl)-1H-indol-4-yl]amino}-1λ^6-thiane-1,1-dione] | ++++ (++++ = 10 μM ≤ SC150 < 35 μM)
